Data set [1] can be described thus: Stability under air (solid and acetonitrile solution), CV and UV-vis. The format is physicochemical. The source says: Long-term stability is a key consideration in the development of RFB systems and recent research has included extensive investigations of state-of-the-art aqueous RFB systems. Factors affecting stability and the decay of capacity including membrane chemistry, thermal effects, gas evolution and electrode corrosion have been identified and this remains an active research area. In comparison, the long-term stability of non-aqueous RFBs remains to be investigated. […] To investigate its stability in solution, a 1 mM acetonitrile solution was analyzed, stored for a period of one week under air atmosphere, and subsequently analyzed. […] Long-term studies to investigate the stability of the membrane, electrode and electrolytes have been initiated.

A short description of data set [2]: Solubility in acetonitrile by UV-vis spectroscopy. It counts as physicochemical. The conditions noted are these: absorbance at 568 nm, Beers law. The protocol:
Solutions were prepared by mixing roughly equal volumes of metal complex and solvent. The resulting black solution was concentrated with a stream of N2 until a slight crust began to form, which was re-dissolved with warming and agitation. The sample was then centrifuged at 8000 RPM for two hours and allowed to stand overnight. Concentrations were determined using absorbance at 568 nm, ε568=4540 M^−1cm^−1.

Data set [3] can be described thus: Cyclic voltammetry (redox potentials). The format is physicochemical. The conditions noted are these: 20 mM in CH3CN with 0.1 M [TBA][PF6], 250 mV/s, room temperature; mid-point of anodic and cathodic peak potentials. The source says:
Ferrocene was used as an internal standard.
CV of 1b, shown in FIG. 7, is similar to that reported previously for [V(mnt)3]^2− with various cations. Three reversible waves corresponding to the 4^−/3^−, 3^−/2^− and 2^−/1^− redox couples are observed at −1.41 V, −0.227 V and 0.856 V vs. SHE, respectively. Redox potential values reported herein correspond to the mid-point between the anodic and cathodic peak potentials of a cyclic voltammogram. […] Thus, a battery cell constructed using 1 as both anolyte and catholyte has a theoretical cell potential of […] and a theoretical energy density of 13 W·h·L^−1. However, bulk reduction of [V(mnt)3]^2− to [V(mnt)3]^3− in the anodic half-cell before charging would result in a theoretical cell potential and energy density of 2.3V and 28 W·h·L^−1, respectively. These values compare favorably to previously reported non-aqueous RFB electrolytes. A RFB based on [V(mnt)3]^2− solutions would also benefit from having the same chemical species in both half-cells, a strategy that has been employed previously to prevent irreversible self-discharge from crossover of active redox species through the membrane. This feature then also enables the use of inexpensive, microporous separators that are not ion-selective.

Data set [4] is described as follows: Static cell (H-cell) galvanostatic charge-discharge cycling. As to conditions: 20 mM in acetonitrile, 0.1 M [TBA][PF6]; through cycle 16.
Experimental: Cyclic voltammetry (CV) was carried out using a Bio-Logic SP-200 potentiostat, a glassy carbon working electrode, a Pt wire counter electrode and a silver-wire pseudo reference electrode. Ferrocene was used as an internal standard. For static cell battery testing, an H-cell was used containing 20 mM anolyte/catholyte and 100 mM [NBu4][PF6] supporting electrolyte. Charge and discharge currents were 1 mA and 0.1 mA, respectively. Graphite electrodes (POCO) having a 2 cm^2 active area and a Tonen V25EKD separator were used.
A two-compartment cell with non-flowing solutions (i.e., “static cell”) was assembled to assess the charge-discharge characteristics of [V(mnt)3]^2− in a non-aqueous environment. Both compartments contained a 20 mM solution of 1b in acetonitrile with 0.1 M tetrabutylammonium hexafluorophosphate as supporting electrolyte. Two graphite electrodes (POCO) with 2 cm^2 active areas and a V25EKD separator (Tonen) were used. Because the discharged cathode and anode complexes are both in the 2^− oxidation state, it is presumed that the cathode complex converts to the 1^− state and the anode complex converts to the 3^− state during charge.

Data on two compounds can be found in patent publication US20140239906A1, “REDOX-ACTIVE LIGAND-BASED TRANSITION METAL COMPLEX FLOW BATTERIES” (Sandia Corporation, priority 2013, published 2014).

On to `C[N+](C)(C)C.C[N+](C)(C)C.N#CC([S-])=C([S-])C#N.N#CC([S-])=C([S-])C#N.N#CC([S-])=C([S-])C#N.[V+4]` [1a], for which, in data set [1] (1 mM acetonitrile solution, one week under air atmosphere), the “stability in solution (CV and UV-vis spectroscopy)” value was “unchanged”. In addition, the “stability as prepared to ambient oxygen and moisture” value in data set [1] (as prepared, stored under air) is listed as “no decomposition was observed”.

`CC[N+](CC)(CC)CC.CC[N+](CC)(CC)CC.N#CC([S-])=C([S-])C#N.N#CC([S-])=C([S-])C#N.N#CC([S-])=C([S-])C#N.[V+4]` [1b]: in data set [2], the maximum solubility was around 900 mM. For the same compound, in data set [3], the “redox potential 2−/1− couple” value is 0.856 V vs. SHE, the “redox potential 3−/2− couple” value is −0.227 V vs. SHE and the “redox potential 4−/3− couple” value was −1.41 V vs. SHE. The “electrochemical yield (faradaic efficiency) of charge cycles, stabilized” value in data set [4] is 20-25%.
